Tests used:
[1] = system: ZDF fa/fa rats; test: 21-day ZDF fa/fa study: glycated hemoglobin HbA1c; assay type: in vivo, rat; conditions: 10 mg/kg p.o. 1×/daily, day 21
Method: (§1) Animals. Male ZDF fa/fa rats were obtained from CRL (Kingston, N.Y.). Upon arrival, rats were seven weeks of age. The rats were housed individually per cage in a room with a photo cycle of 12 hours of light and 12 hours of dark and an ambient temperature of 70-72° F. and fed on regular rodent diet and water ad libitum. At the age of eleven weeks, rats were divided into six groups (Table 5) of eight rats per group based on fasting blood glucose levels. A sub-group of four rats per group was maintained in parallel to the main groups and was dosed similarly for twenty-one days for a hyperinsulinemic-euglycemic clamp study. […]
(§2) An oral glucose tolerance test (OGTT) was performed on Day 0, 7, 14 and 21 for each group of the study. Plasma samples were collected at each time point during OGTT to also measure insulin levels. Body weight, food and water intake were measured twice a week. Blood pressure and heart rates were monitored on Day 0, 7, 14 and 21 using a non-invasive tail cuff method (with five readings per rat taken and then averaged). Fasting serum samples were collected on Day 0, 7, 14 and 21 before OGTT for determination of triglyceride and total cholesterol level. Urine samples were collected on Day 7 and 14 for the determination of glycosuria. Glycated (Glycosylated) hemoglobin (HbA1c) was measured at the end of the study. Assay kits for these studies were as presented in Table 6, and were used according to the suppliers' instructions.
The mean change in fasting blood glucose (mg/dL), serum cholesterol (mg/dL) and systolic blood pressure (mm Hg) from baseline ([…]) and negative control (MG2b-57, 0.2 mg/kg) groups using an analysis of covariance to adjust for baseline levels. […] A significance level of a=0.05 was used for all tests, and all analyses were conducted using SAS statistical software (vs. 9.2, Cary, N.C., U.S.A.).

[2] = system: ZDF fa/fa rats; test: 21-day ZDF fa/fa study: fasting blood glucose; assay type: in vivo, rat; conditions: 10 mg/kg p.o. 1×/daily, day 21; baseline 116.5+/−25.8
Method: as §1, §2
Fasting blood glucose levels were measured on Day 0, 7, 14 and 21.
(§3) The mean change in fasting blood glucose (mg/dL), serum cholesterol (mg/dL) and systolic blood pressure (mm Hg) from baseline (Day 0) to Day 21 was compared between the high-dose (5F12G1, 0.2 mg/kg) and negative control (MG2b-57, 0.2 mg/kg) groups using an analysis of covariance to adjust for baseline levels. The mean HbA1c percentage in high-dose (5F12G1, 0.2 mg/kg) rats was compared to the mean HbA1c percentage for negative control (MG2b-57, 0.2 mg/kg) rats using an unequal-variance, independent two-sample t-test. A significance level of a=0.05 was used for all tests, and all analyses were conducted using SAS statistical software (vs. 9.2, Cary, N.C., U.S.A.).

[3] = system: ZDF fa/fa rats; test: 21-day ZDF fa/fa study: urinary glucose (glycosuria); assay type: in vivo, rat; conditions: 10 mg/kg p.o. 1×/daily, day 14
[4] = system: ZDF fa/fa rats; test: 21-day ZDF fa/fa study: oral glucose tolerance test (blood glucose, plasma insulin); assay type: in vivo, rat; conditions: 10 mg/kg p.o. 1×/daily, day 21
Method: as §1, §2
OGTTs were performed on Day 0, 7, 14 and Day 21. Rats were fasted overnight and fasted blood glucose levels were measured (t=0 min), and then each rat was given a single 1.5 ml dose of glucose solution (2 g/kg body weight of D-(+)-glucose (G7528, Sigma) solubilized in deionized water) administered by oral gavage. […] At each time point of an OGGT approximately 50-60 μl of blood were collected and processed for plasma to measure insulin levels.
Plasma Collection. On days 0, 7, 14 and 21 during an OGTT test, blood samples were collected from the rats at each time point (0, 15, 30, 60, 90 and 120 minutes) into tubes containing lithium heparin (BD Biosciences, USA) by tail nip and kept on ice. The samples were then centrifuged at 4° C. for plasma separation and the plasma supernatants were transferred into 0.5 ml Eppendorf™ tubes by pipette and stored at −80° C. for the analysis of insulin levels.

[5] = system: ZDF fa/fa rats; test: 21-day ZDF fa/fa study: serum total cholesterol and triglyceride; assay type: in vivo, rat; conditions: 10 mg/kg p.o. 1×/daily, day 21
Method: as §1, §2, §3

[6] = target: T1, human BKB2R-derived epitope peptide, SE ID NO:73 (Homo sapiens, UniProt P30411); test: ForteBio Octet binding kinetics to the BKB2R epitope peptide
T1 construct: purchased Biosyn, Lewisville, Tex
Method: Proteins corresponding to all combinations of humanized or chimeric (5F12G1 VH and VL on human IgG2 backbone) antibodies were tested for binding to the human BKB2R-derived epitope peptide, SE ID NO:73.
A ForteBio (Menlo Park, Calif., USA) Octet® platform was used to analyze the binding affinities and binding characteristics of the humanized monoclonal antibodies to the peptide epitope (SEQ ID NO:73) and compared to the original mouse monoclonal 5F12G1. This platform employed label-free technology for measuring biomolecular interactions by optical analysis of the interference pattern of white light reflected from two surfaces: a layer of immobilized protein on the biosensor tip, and an internal reference layer. Any change in the number of molecules bound to the biosensor tip caused a shift in the interference pattern that was measured in real-time. Binding specificity, and rates of association and dissociation were monitored.
For the Octet study, antibodies were analyzed by kinetic titration of the antibodies. Antibodies were prepared in kinetic buffer (0.001 M phosphate buffered saline (NaCl 0.0138 M; KCl-0.00027 M); pH 7.4, at 25° C., 0.1 mg/ml BSA, 0.002% Tween and 0.005% Sodium Azide) followed by 1:2 serial dilutions.
Sensor Prep: Streptavidin biosensors (FortéBio Inc, Menlo Park, Calif.) were coated by incubation in a solution containing a peptide ([…]-PEG-biotin) (Biosyn, Lewisville, Tex.) at 50 μg/ml (300 seconds/1000 rpm shaking). 96 well half-volume plates were used for testing. 90 μl of sample was plated per well. Sensors were allowed to equilibrate to baseline in kinetic buffer (60 seconds/1000 rpm). The sensors were then placed into the various antibody dilutions to allow binding (association) to the probe for 500 seconds/1000 rpm, and measurements were taken. The sensors were then moved into kinetic buffer without antibody for dissociation (500 seconds/1000 rpm), and measurements were taken. Octet system software calculated kinetic constants for on rate/off rate/affinity.
[…] […] Each concentration was tested twice. The HC and LC represented the mouse original 5F12G1 VH and VL sequences.

[7] = system: ZDF fa/fa rats; test: Oral glucose tolerance test in ZDF fa/fa rats, humanized mAbs; assay type: in vivo, rat; conditions: 0.2 mg/kg s.c.; order: H38/L39, H37/L38, L2/H2, H38/L38, H37/L37, H38/L38, H39/137 [sic], H39/L39, H37/L37, H39/L38, H37/L39, L1/H1
Excerpt: This example describes evaluation of mouse mAb 5F12G1 and its twelve humanized clones in Zucker Diabetic fatty (ZDF fa/fa) rats for effects on insulin sensitivity in animals. Zucker Diabetic Rats develop symptoms similar to type 2 diabetes and are genetically resistant to insulin. […] Therefore, the Zucker rat is a good model to test the ability of the monoclonal antibody to increase insulin sensitivity, especially in an OGTT.
Male ZDF fa/fa rats were obtained from Charles River (Kingston, ON). Upon arrival, rats were ten weeks of age. The rats were housed individually per cage in a room with a photo cycle of 12 hours of light and 12 hours of dark and an ambient temperature of 70-72° F. and fed on regular rodent diet and water ad libitum. After seven days of acclimatization, rats were grouped into fourteen groups of three rats per group (Table 10).
Oral Glucose Tolerance Test. An oral glucose tolerance test (OGTT) was performed on overnight fasted (16 hours) rats. Rats received subcutaneously administered humanized mAbs, mouse mAb 5F12G1 (positive control) and PBS (vehicle control) at a dose of 0.2 mg/kg body weight, thirty minutes prior to glucose administration. D-Glucose was prepared in distilled water and administered orally at 2 g/kg body weight. Blood glucose levels were measured before administration of humanized mAbs, 5F12G1 or vehicle (t=−30 minutes) and just before glucose loading (0 minute), and at timepoints of 30, 60, 90 and 120 minutes, using Accu-chek™ glucose meter.

Molecule | percent glycosylated hemoglobin A1c (HbA1c) [1] | fasting blood glucose level [2] | urine glucose level [3] | AUC of blood glucose during OGTT [4] | blood glucose level at 30 minutes of the OGTT [4] | blood glucose level at the start of the OGTT [4] | fasting insulin level [4] | insulin level at 15 minutes of the OGTT [4] | serum cholesterol [5] | kdis ([6]; Conc. 500 nM) | kon ([6]; Conc. 500 nM) | binding compared with the original mouse monoclonal antibody ([6]; Octet, epitope peptide) | order of effect on the decrease in AUC of blood glucose [7]
N[C@@H](CC(=O)N1CCn2c(nnc2C(F)(F)F)C1)Cc1cc(F)c(F)cc1F [sitagliptin, reference compound] | 8.8+/−0.4% | 247 ± 14 mg/dL | elevated urine glucose | 53765.75 ± 2281.45 mg/dL (min) | 488 mg/dL | 228 mg/dL | 10 ± 3.5 ng/mL | 15 ± 4 ng/mL | 170 ± 14 mg/dL |  |  |  | 
H38/L39: humanized anti-BKB2R mAb, heavy chain H38 (SEQ ID NO:6), light chain L39 (SEQ ID NO:12) (antibody, V domains shown, Humanized H38 Heavy Chain Variable Region VH; Humanized L39 Light Chain Region VL) VH: EVQLLESGGGLVQPGGSLKLSCAVSGFTFSDYWMSWVRQAPGKGLEWVSEIRLKSDNYATHYADSVKGRFTISRDDSKNTLYLQMNSLRAEDTAVYYCTRDYYAMEYWGQGTLVTVSS VL: DVVMTQTPLSLSVTPGQPASISCKSSQTIVHSNGKTYLEWYLQKPGQSPQLLIYKVSNRFSGVPDRFSGSGSGTDFTLKISRVEAEDVGVYYCFQASHVPYTFGQGTKLEIK |  |  |  |  |  |  |  |  |  | 106 s⁻¹ | 1.14e+09 M⁻¹ s⁻¹ | stronger binding (lower KD) | higher
